Activity calls are given as the source filed them. No rule for the calls is given here.
Test system: CCRIS mutagenicity, Ames/micronucleus/aberration tests
Assay: CCRIS mutagenicity studies
[1] = Test System: AMES SALMONELLA TYPHIMURIUM, Strain/Indicator: TA98, Metabolic Activation: NONE, Method: STANDARD PLATE
[2] = Test System: AMES SALMONELLA TYPHIMURIUM, Strain/Indicator: TA98, Metabolic Activation: RAT, LIVER, S-9, AROCLOR 1254, Method: STANDARD PLATE
[3] = Test System: AMES SALMONELLA TYPHIMURIUM, Strain/Indicator: TA100, Metabolic Activation: NONE, Method: STANDARD PLATE
[4] = Test System: AMES SALMONELLA TYPHIMURIUM, Strain/Indicator: TA100, Metabolic Activation: RAT, LIVER, S-9, AROCLOR 1254, Method: STANDARD PLATE
[5] = Test System: AMES SALMONELLA TYPHIMURIUM, Strain/Indicator: TA1538, Metabolic Activation: NONE, Method: STANDARD PLATE
[6] = Test System: AMES SALMONELLA TYPHIMURIUM, Strain/Indicator: TA1538, Metabolic Activation: RAT, LIVER, S-9, AROCLOR 1254, Method: STANDARD PLATE
[7] = Test System: AMES SALMONELLA TYPHIMURIUM, Strain/Indicator: TA98, Metabolic Activation: NONE, Method: PREINCUBATION
[8] = Test System: AMES SALMONELLA TYPHIMURIUM, Strain/Indicator: TA100, Metabolic Activation: NONE, Method: PREINCUBATION

Structure (SMILES): Nc1ccc2cc(S(=O)(=O)O)c(N=Nc3ccc(N=Nc4ccc(NCCO)cc4NCCO)cc3OCCO)c(O)c2c1
- mutagenic call [1]: inactive; negative
- mutagenic call [2]: active; positive
- mutagenic call [3]: inactive; negative
- mutagenic call [4]: inactive; negative
- mutagenic call [5]: inactive; negative
- mutagenic call [6]: active; positive

Structure (SMILES): O=[N+]([O-])c1ccc2ccc3c4c(cc5ccc1c2c53)C=CCC4
- mutagenic call (Test System: AMES SALMONELLA TYPHIMURIUM, Strain/Indicator: TA98(1,8-DNP6), Metabolic Activation: NONE, Method: STANDARD PLATE): active; positive
- mutagenic call (Test System: AMES SALMONELLA TYPHIMURIUM, Strain/Indicator: TA98(1,8-DNP6), Metabolic Activation: RAT, LIVER, S-9, AROCLOR 1254, Method: STANDARD PLATE): active; positive
- mutagenic call (Test System: AMES SALMONELLA TYPHIMURIUM, Strain/Indicator: TA98(NR), Metabolic Activation: NONE, Method: STANDARD PLATE): active; positive
- mutagenic call (Test System: AMES SALMONELLA TYPHIMURIUM, Strain/Indicator: TA98(NR), Metabolic Activation: RAT, LIVER, S-9, AROCLOR 1254, Method: STANDARD PLATE): active; positive
- mutagenic call [1]: active; positive
- mutagenic call [2]: active; positive
- mutagenic call [3]: active; positive
- mutagenic call [4]: active; positive

Structure (SMILES): CC(=O)N=c1sn(C(C)=O)c2ccc([N+](=O)[O-])cc12
- mutagenic call (Test System: AMES SALMONELLA TYPHIMURIUM, Strain/Indicator: TA100, Metabolic Activation: S-9, Method: STANDARD PLATE): active; positive

Structure (SMILES): c1scc2c1-c1cscc1C1OC21 (stereo not drawn)
- mutagenic call [1]: active; positive
- mutagenic call [3]: active; positive

Structure (SMILES): CC(=O)O[C@H]1[C@H](OC23C=C(C)C4(CC4)C(C)(O)C2C(=O)C(C)(C)C3)O[C@H](CO)[C@@H](OC(=O)/C=C/c2ccc(O)cc2)[C@@H]1O (stereo partly drawn)
- mutagenic call [7]: active; positive
- mutagenic call [8]: active; positive

Structure (SMILES): CN(CCO)C(=O)Nc1ccc(Cl)c(Cl)c1
- mutagenic call [1]: inactive; negative
- mutagenic call [2]: inactive; negative
- mutagenic call [3]: inactive; negative
- mutagenic call [4]: inactive; negative
- mutagenic call (Test System: AMES SALMONELLA TYPHIMURIUM, Strain/Indicator: TA1535, Metabolic Activation: NONE, Method: STANDARD PLATE): inactive; negative
- mutagenic call (Test System: AMES SALMONELLA TYPHIMURIUM, Strain/Indicator: TA1535, Metabolic Activation: RAT, LIVER, S-9, AROCLOR 1254, Method: STANDARD PLATE): inactive; negative
- mutagenic call (Test System: AMES SALMONELLA TYPHIMURIUM, Strain/Indicator: TA1537, Metabolic Activation: NONE, Method: STANDARD PLATE): inactive; negative
- mutagenic call (Test System: AMES SALMONELLA TYPHIMURIUM, Strain/Indicator: TA1537, Metabolic Activation: RAT, LIVER, S-9, AROCLOR 1254, Method: STANDARD PLATE): inactive; negative
- mutagenic call [5]: inactive; negative
- mutagenic call [6]: inactive; negative

Structure (SMILES): Nc1cccc2c1Cc1ccccc1-2
- mutagenic call (Test System: AMES SALMONELLA TYPHIMURIUM, Strain/Indicator: TA98, Metabolic Activation: RAT, LIVER, S-9, AROCLOR 1254 (2 OR 4%), Method: STANDARD PLATE): active; positive
- mutagenic call (Test System: AMES SALMONELLA TYPHIMURIUM, Strain/Indicator: TA100, Metabolic Activation: RAT, LIVER, S-9, AROCLOR 1254 (4%), Method: STANDARD PLATE): active; positive
- mutagenic call (Test System: AMES SALMONELLA TYPHIMURIUM, Strain/Indicator: TA1535, Metabolic Activation: RAT, LIVER, S-9, AROCLOR 1254 (4%), Method: STANDARD PLATE): inactive; negative
- mutagenic call (Test System: AMES SALMONELLA TYPHIMURIUM, Strain/Indicator: TA1537, Metabolic Activation: RAT, LIVER, S-9, AROCLOR 1254 (4%), Method: STANDARD PLATE): active; positive

Structure (SMILES): Nc1ccccc1-c1ccccc1
- mutagenic call (End Point: IN VITRO CHROMOSOMAL ABERRATIONS, Test System: CHO CELLS, Metabolic Activation: RAT, LIVER, S-9, AROCLOR 1254): inactive; negative
- mutagenic call (End Point: IN VITRO CHROMOSOMAL ABERRATIONS, Test System: CHO-WBL CELLS, Metabolic Activation: RAT, LIVER, S-9, PHENOBARBITAL AND BETA-NAPHTHOFLAVONE): active; positive (at 24 hr)
- mutagenic call (Test System: AMES SALMONELLA TYPHIMURIUM, Strain/Indicator: TA97, Metabolic Activation: HAMSTER, LIVER, S-9, AROCLOR 1254 (10%), Method: PREINCUBATION): inactive; negative
- mutagenic call (Test System: AMES SALMONELLA TYPHIMURIUM, Strain/Indicator: TA97, Metabolic Activation: NONE, Method: PREINCUBATION): inactive; negative
- mutagenic call (Test System: AMES SALMONELLA TYPHIMURIUM, Strain/Indicator: TA97, Metabolic Activation: RAT, LIVER, S-9, AROCLOR 1254 (10%), Method: PREINCUBATION): inactive; negative
- mutagenic call (Test System: AMES SALMONELLA TYPHIMURIUM, Strain/Indicator: TA98, Metabolic Activation: HAMSTER, LIVER, S-9, AROCLOR 1254 (10%), Method: PREINCUBATION): inactive; negative
- mutagenic call [7]: inactive; negative
- mutagenic call [1]: inactive; negative
- mutagenic call (Test System: AMES SALMONELLA TYPHIMURIUM, Strain/Indicator: TA98, Metabolic Activation: RAT LIVER S-9, AROCLOR 1254, Method: PREINCUBATION): inactive; negative
- mutagenic call (Test System: AMES SALMONELLA TYPHIMURIUM, Strain/Indicator: TA98, Metabolic Activation: RAT, LIVER, S-9, AROCLOR 1254 (4%), Method: STANDARD PLATE): inactive; negative
- mutagenic call (Test System: AMES SALMONELLA TYPHIMURIUM, Strain/Indicator: TA98, Metabolic Activation: RAT, LIVER, S-9, AROCLOR 1254 (10%), Method: PREINCUBATION): inactive; negative
- mutagenic call (Test System: AMES SALMONELLA TYPHIMURIUM, Strain/Indicator: TA100, Metabolic Activation: HAMSTER, LIVER, S-9, AROCLOR 1254 (10%), Method: PREINCUBATION): active; positive
- mutagenic call [8]: inactive; negative
- mutagenic call [3]: inactive; negative
- mutagenic call (Test System: AMES SALMONELLA TYPHIMURIUM, Strain/Indicator: TA100, Metabolic Activation: RAT LIVER S-9, AROCLOR 1254, Method: PREINCUBATION): inactive; negative
- mutagenic call (Test System: AMES SALMONELLA TYPHIMURIUM, Strain/Indicator: TA100, Metabolic Activation: RAT, LIVER, S-9, AROCLOR 1254 (10%), Method: PREINCUBATION): active; positive
- mutagenic call (Test System: AMES SALMONELLA TYPHIMURIUM, Strain/Indicator: TA1535, Metabolic Activation: HAMSTER, LIVER, S-9, AROCLOR 1254 (10%), Method: PREINCUBATION): inactive; negative
- mutagenic call (Test System: AMES SALMONELLA TYPHIMURIUM, Strain/Indicator: TA1535, Metabolic Activation: NONE, Method: PREINCUBATION): inactive; negative
- mutagenic call (Test System: AMES SALMONELLA TYPHIMURIUM, Strain/Indicator: TA1535, Metabolic Activation: RAT, LIVER, S-9, AROCLOR 1254 (10%), Method: PREINCUBATION): inactive; negative

Structure (SMILES): Cc1ccc2cc3c(ccc4ccccc43)c3c2c1C(=O)C3
- mutagenic call (Test System: CHINESE HAMSTER V-79, Strain/Indicator: V-79/8-AZAGUANINE, Metabolic Activation: RAT, LIVER, S-9, AROCLOR 1254, Method: STANDARD PLATE): active; positive

Structure (SMILES): c1ccc2c(c1)C1CCCCC1[C@@H]1O[C@@H]21 (stereo partly drawn)
- mutagenic call [1]: inactive; negative
- mutagenic call [3]: inactive; negative

Structure (SMILES): COc1cc(Cl)c(OC)cc1Cl
- mutagenic call (Test System: AMES SALMONELLA TYPHIMURIUM, Strain/Indicator: TA98, Metabolic Activation: HAMSTER, LIVER, S-9, AROCLOR 1254 (5 OR 10%), Method: PREINCUBATION): inactive; negative
- mutagenic call (Test System: AMES SALMONELLA TYPHIMURIUM, Strain/Indicator: TA98, Metabolic Activation: HAMSTER, LIVER, S-9, AROCLOR 1254 (30%), Method: PREINCUBATION): inactive; negative
- mutagenic call [7]: inactive; negative
- mutagenic call (Test System: AMES SALMONELLA TYPHIMURIUM, Strain/Indicator: TA98, Metabolic Activation: RAT, LIVER, S-9, AROCLOR 1254 (30%), Method: PREINCUBATION): inactive; negative
- mutagenic call (Test System: AMES SALMONELLA TYPHIMURIUM, Strain/Indicator: TA100, Metabolic Activation: HAMSTER, LIVER, S-9, AROCLOR 1254 (5 OR 10%), Method: PREINCUBATION): inactive; negative
- mutagenic call (Test System: AMES SALMONELLA TYPHIMURIUM, Strain/Indicator: TA100, Metabolic Activation: HAMSTER, LIVER, S-9, AROCLOR 1254 (30%), Method: PREINCUBATION): active; positive
- mutagenic call [8]: inactive; negative
- mutagenic call (Test System: AMES SALMONELLA TYPHIMURIUM, Strain/Indicator: TA100, Metabolic Activation: RAT, LIVER, S-9, AROCLOR 1254 (30%), Method: PREINCUBATION): inactive; negative

Reference: PubChem BioAssay AID1259407 (Chemical Carcinogenesis Research Information System (CCRIS), 2018)
